Like-named read-outs stand apart in the source and are kept apart here.
Legend:
[1] = target: T1, purified catalytic domain of recombinant human TACE (rhTACEc) (Homo sapiens, UniProt P78536, N452Q/S266A); experiment: TACE kinetic assay: cleavage of internally quenched peptide substrate TNF-FRET 2 (Ki); assay type: biochemical; details: TNF-FRET 2 substrate, read-out: Ki
T1 construct: 6xHis (C); made in house; host or cells: baculovirus/Hi5 insect cells

[2] = tested on: TNF-α production from human whole blood; experiment: Inhibition of TNF-α production from human whole blood (hWBA), LPS stimulated, ELISA; assay type: cell-based; details: Homo sapiens, TNF-α by ELISA, read-out: hWBA (IC50)
[3] = LPS-stimulated human whole blood
[4] = 3.5 h, human whole blood diluted 1:1, LPS stimulated, 3.5 h

T1 sequence (P78536 215-477 S266A/N452Q): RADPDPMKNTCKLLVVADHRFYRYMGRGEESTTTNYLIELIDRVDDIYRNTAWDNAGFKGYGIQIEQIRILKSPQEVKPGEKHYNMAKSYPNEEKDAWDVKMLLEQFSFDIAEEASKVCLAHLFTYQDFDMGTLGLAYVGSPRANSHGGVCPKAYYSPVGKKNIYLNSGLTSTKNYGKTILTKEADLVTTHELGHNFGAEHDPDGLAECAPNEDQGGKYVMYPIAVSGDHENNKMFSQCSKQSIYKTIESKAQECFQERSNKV

Ki [1] | IC50 [2, 3] | IC50 [2, 4] | SMILES
0.661 nM | 0.658 µM | – | COc1ccc2c(c1)C(=O)N(C[C@@]1(c3cc4cc(-c5cnn(C)c5)ncc4o3)NC(=O)NC1=O)C2 [Compound 306]
0.377 nM | 0.662 µM | – | CSc1ccc2c(c1)C(=O)N(C[C@@]1(c3cc4cnccc4o3)NC(=O)NC1=O)C2 [Compound 309]
0.0208 nM | 0.244 µM | – | COc1ccc2c(c1F)C(=O)N(C[C@@]1(c3ccc(-c4ccc(N)nc4)o3)NC(=O)NC1=O)C2 [Compound 310]
0.594 nM | 0.784 µM | – | COc1ccc2c(c1)C(=O)N(C[C@@]1(c3cc4cc(C(N)C(F)(F)F)ccc4o3)NC(=O)NC1=O)C2 (stereo partly shown) [Compound 311]
0.736 nM | 1.79 µM | – | COc1ccc2c(c1F)C(=O)N(C[C@@]1(c3ccco3)NC(=O)NC1=O)C2 [Compound 313]
0.444 nM | 0.536 µM | – | COc1ccc2c(c1F)C(=O)N(C[C@@]1(c3ccc(-c4cccnc4)o3)NC(=O)NC1=O)C2 [Compound 314]
0.82 nM | 0.497 µM | – | COc1ccc2c(c1)C(=O)N(C[C@@]1(c3cc4c(o3)CCN(S(C)(=O)=O)C4)NC(=O)NC1=O)C2 [Compound 316]
2.13 nM | 0.704 µM | – | CCOC(=O)N1CCc2cc([C@]3(CN4Cc5ccc(OC)cc5C4=O)NC(=O)NC3=O)oc2C1 [Compound 317]
5.62 nM | 0.646 µM | – | COc1ccc2c(c1)C(=O)N(C[C@@]1(c3cc4c(o3)CCN(C(N)=O)C4)NC(=O)NC1=O)C2 [Compound 318]
1.83 nM | 0.501 µM | – | COc1ccc2c(c1)C(=O)N(C[C@@]1(c3cc4c(o3)CCN(C(=O)N(C)C)C4)NC(=O)NC1=O)C2 [Compound 319]
701 nM | ≥ 1000 µM | – | COc1ccc2c(c1)C(=O)N(C[C@@]1(c3cc4c(o3)CCN(C(=O)Nc3cccnc3)C4)NC(=O)NC1=O)C2 [Compound 321]
0.67 nM | 0.759 µM | – | COc1ccc2c(c1)C(=O)N(C[C@@]1(c3cc4cnc(C#N)cc4o3)NC(=O)NC1=O)C2 [Compound 322]
0.844 nM | 1.59 µM | – | COc1ccc2c(c1)C(=O)N(C[C@@]1(c3cc4cc(-c5c(OC(C)C)noc5C)cnc4o3)NC(=O)NC1=O)C2 [Compound 501]
4.23 nM | 1.83 µM | – | COc1ccc2c(c1)C(=O)N(C[C@@]1(c3cn4c5c(sc4n3)CN(C)CC5)NC(=O)NC1=O)C2 [Compound 503]
0.558 nM | 0.252 µM | – | COc1ccc2c(c1F)C(=O)N(C[C@@]1(c3cc4ccc(NC(C)=O)nc4o3)NC(=O)NC1=O)C2 [Compound 505]
0.41 nM | 0.354 µM | – | COc1ccc2c(c1F)C(=O)N(C[C@@]1(c3cc4cc(-c5c(C)nn(C)c5C)c(F)cc4o3)NC(=O)NC1=O)C2 [Compound 1181]
0.14 nM | 0.232 µM | – | COc1ccc2c(c1F)C(=O)N(C[C@@]1(c3cc4cc(-c5c(C)n[nH]c5C)c(F)cc4o3)NC(=O)NC1=O)C2 [Compound 1183]
0.85 nM | – | 2.71 µM | COc1ccc2c(c1)C(=O)N(C[C@@]1(c3cc4cc(-c5ccc(N(C)C)nc5)ccc4o3)NC(=O)NC1=O)C2 [Compound 1184]
0.45 nM | – | 1.05 µM | COC(=O)c1cc2cc([C@]3(CN4Cc5ccc(OC)cc5C4=O)NC(=O)NC3=O)oc2cc1F [Compound 1271]
0.51 nM | – | 0.667 µM | COc1ccc2c(c1)C(=O)N(C[C@@]1(c3cc4cc(C(=O)O)c(F)cc4o3)NC(=O)NC1=O)C2 [Compound 1272]
0.5 nM | – | 0.142 µM | COc1ccc2c(c1)C(=O)N(C[C@@]1(c3cc4cc(C(=O)NCCN)c(F)cc4o3)NC(=O)NC1=O)C2 [Compound 1274]
0.88 nM | – | 0.441 µM | COc1ccc2c(c1)C(=O)N(C[C@@]1(c3cc4cc(C(=O)N(C)CCN(C)C)c(F)cc4o3)NC(=O)NC1=O)C2 [Compound 1275]
1.2 nM | – | 0.251 µM | COc1ccc2c(c1)C(=O)N(C[C@@]1(c3cc4cc(C(=O)NCCNC(C)C)c(F)cc4o3)NC(=O)NC1=O)C2 [Compound 1276]
